US6693083B2, “Conjugates targeted to the interleukin-2 receptor” (Watson Pharmaceuticals, Inc., priority 1997, dated 2004)
“Also recorded” adds a separate entry of the source. Read-outs that look alike come from different tables or passages of the source. Where no end group is shown, it is not given here. PEG = not defined here; ADR = adriamycin

Legend:
mouse CTLL-2 cells = test: In vitro cytotoxic activity against mouse CTLL-2 cells (MTS cell viability assay)
Experimental: CTLL-2 cells express the IL-2 high affinity receptor. […] Thereafter, cell viability was assessed by a colorimetric method using the tetrazolium compound MTS (3-(4,5-dimethylthiazol-2-yl)-5-(3-carboxymethoxyphenyl)-2-(4-sulfophenyl)-2H-tetrazolium, inner salt) and an electron coupling reagent, PMS (phenazine methosulfate). A. J. Cory et al., 3 Cancer Commun. […] MTS is bioreduced by living cells into a soluble formazan product. The absorbence of the formazan at 490 nm can be measured directly from 96 well assay plates without additional processing. The quantity of formazan product as measured by the absorbence at 490 nm is directly proportional to the number of living cells in culture. Reagents for the MTS assay were obtained from Promega Corp. (Madison, Wis.). […] The plate was then further incubated at 37° C. in a humidified, 5% CO2 atmosphere for 4 hours. The absorbence of each well was then measured at 490 nm with an EL311 Microplate Autoreader (Bio-Tek Instruments). The mean absorbence for each treatment was then calculated, and the percent cytotoxicity was determined using the formula: [formula]
wherein AS represents the mean absorbence for each treatment and AC represents mean absorbence of the control treatment, i.e. cells not exposed to a conjugate.

B10.RIII mice = test: Treatment of collagen-induced arthritis (CIA) in B10.RIII mice; conditions: 2 mg/kg i.p.; for weight loss: alternate day treatment, observed for 84 days, PBS control about 5%±5%
Experimental: B10.RIII mice were injected with CII (200 μg) emulsified with complete Freund's adjuvant (CFA; 200 μg H37Ra). At day 21, mice were boosted with 100 μg of CII, randomized for CIA severity (13/group), and an alternate day treatment protocol was begun.

[1] = system: IL-2-induced proliferation of murine splenocytes; test: Inhibition of IL-2-induced proliferation of murine splenocytes (trypan blue viable cell count); type: cell-based, mouse; conditions: for specific binding to the IL-2 receptor: concluded from inhibition of IL-2-induced proliferation (Example 20)
Experimental: The in vitro effects of IL-2-receptor-targeted conjugates on IL-2-induced proliferation of murine splenocytes was examined.
A sterile splenocyte suspension was prepared as follows. Spleens were aseptically removed from male C57 BL/6 mice and placed in sterile tissue culture medium (RPMI plus 10% fetal calf serum). The spleens were teased apart and gently aspirated using a Pasteur pipet. The resulting spleen cell suspension was then filtered through sterile gauze and centrifuged at 150×g for 10 minutes at 20° C. […] After 30 seconds, an equal volume of tissue culture medium was added to the suspension to restore isotonicity. The cell suspension was again centrifuged at 150×g for 10 minutes at 20° C., and the resulting cell pellet was washed once using tissue culture medium. The washed cell pellet was finally resuspended in tissue culture medium, and cell density was adjusted to 5×10^6 cells/ml.
To the wells of a 96-well assay plate (Falcon MICROTEST III), 50 μl volumes of the splenocyte suspension were added. Competitor (conjugate) solutions were prepared and diluted in tissue culture medium and added to the wells of the assay plate in 25 μl volumes. To control wells, 25 μl of tissue culture medium was added. […] To the wells of the assay plate, 25 μl of either tissue culture medium or a solution containing recombinant human IL-2 (Pharmingen) at a concentration of 20 ng/ml (in tissue culture medium) was added.
Final results were quantitated as follows. Viable cell counts were performed for each separate well of the assay plate using the trypan blue exclusion method. Trypan blue is taken up and imparts a blue color to dead cells. Briefly, an aliquot of cells was twice diluted in 0.4% trypan blue stain (Sigma Chemical Co., St. Louis, Mo.) and incubated for 5 minutes before counting with a hemacytometer and an inverted microscope. The percentage of viable cells was calculated as the number of unstained cells per unit volume divided by the total number of stained and unstained cells×100. Cell counts for each duplicate set of wells were averaged, and cell proliferation was calculated as percent change from control cells using the following formula: [formula]
Percent inhibition of IL-2 induced proliferation was calculated as follows. [formula]

[2] = 48 hours incubation, MTS assay, compared by adriamycin concentration

Compound	cytotoxicity against CTLL-2 T cells (FIG. 1) (mouse CTLL-2 cells; [2])	weight loss (B10.RIII mice)	specific binding to the IL-2 receptor [1]	further results
COc1cccc2c1C(=O)c1c(O)c3c(c(O)c1C2=O)C[C@@](O)(C(=O)CO)C[C@@H]3O[C@H]1C[C@H](N)[C@H](O)[C@H](C)O1 [adriamycin, reference compound]	–	–	–	cytotoxicity against CTLL-2 T cells (FIG. 1) (mouse CTLL-2 cells): rapidly diffuses into the cells and kills them
PEG-Gly-Phe-Leu-Gly-ADR (GFLG; PEG and adriamycin conjugated; OTHER INFORMATION: Synthetic Construct) [PEG-GFLG-ADR, reference compound]	much lower than that required for PEG-GFLG-ADR	about 10%±8%	–	–
PEG-TT23-ADR ({PEG}-TGLNRILLGFLG-{ADR}; reading uncertain)	kills such CTLL-2 T cells at concentrations much lower than that required for PEG-GFLG-ADR; also recorded: requires higher concentrations of adriamycin than unconjugated adriamycin	about 3%±6%	specifically bind to the IL-2 receptor	arthritis severity (cumulative daily arthritis scores) (B10.RIII mice; alternate day treatment from day 21, observed for 84 days, compared to PBS control (P≦0.02)): significantly greater number of mice with only minimum arthritis
PEG-TT23: prepared according to Example 1 except that no adriamycin was conjugated; PEG coupled to peptide TT23 (SEQ ID NO:22) (TGLNRILLGFLG; not fully specified (N-terminus); also: PEG conjugate, attachment site not given here)	–	–	specifically binds to the IL-2 receptor	inhibition of IL-2-induced proliferation of murine splenocytes (FIG. 2) ([1]; recombinant human IL-2, 48 hours, trypan blue exclusion): very effectively inhibits proliferation
TGLNRILLGFLG [peptide TT23]	–	–	–	amount needed to achieve similar levels of inhibition, relative to PEG-TT23 ([1]; IL-2-induced proliferation of murine splenocytes): about 100 fold
